According to ChEMBL document CHEMBL4330059, “Discovery of N1-(4-((7-(3-(4-ethylpiperazin-1-yl)propoxy)-6-methoxyquinolin-4-yl)oxy)-3,5-difluorophenyl)-N3-(2-(2,6-difluorophenyl)-4-oxothiazolidin-3-yl)urea as a multi-tyrosine kinase inhibitor for drug-sensitive and drug-resistant cancers treatment” (Eur J Med Chem, 2019):

Legend:
Format in all cases: functional, cell-based
[1] = test system: A549; assay: Antiproliferative activity against human A549 cells after 72 hrs by MTT assay; details: A549, 72 h
[2] = test system: HT-29; assay: Antiproliferative activity against human HT-29 cells after 72 hrs by MTT assay; details: HT-29, 72 h
[3] = test system: MDA-MB-231; assay: Antiproliferative activity against human MDA-MB-231 cells after 72 hrs by MTT assay; details: MDA-MB-231, 72 h

Row | IC50 [1] | IC50 [2] | IC50 [3] | Compound
1 | 380 nM | 280 nM | 5380 nM | COc1cc2c(Oc3c(F)cc(NC(=O)NN4C(=O)CSC4c4c(F)cccc4F)cc3F)ccnc2cc1OCCCN1CCC(N2CCCCC2)CC1 (centres undefined)
2 | 510 nM | 150 nM | 4360 nM | COc1cc2c(Oc3c(F)cc(NC(=O)NN4C(=O)CSC4c4c(F)cccc4F)cc3F)ccnc2cc1OCCCN1CCN(C)CC1 (centres undefined)
3 | 690 nM | 350 nM | 9040 nM | COc1cc2c(Oc3ccc(NC(=O)NN4C(=O)CSC4c4c(F)cccc4F)cc3F)ccnc2cc1OCCCN1CCCC1 (centres undefined)
4 | 400 nM | 270 nM | 9650 nM | COc1cc2c(Oc3c(F)cc(NC(=O)NN4C(=O)CCSC4c4c(F)cccc4F)cc3F)ccnc2cc1OCCCN1CCCC1 (centres undefined)
5 | 690 nM | 410 nM | 8120 nM | COc1cc2c(Oc3c(F)cc(NC(=S)NN4C(=O)CSC4c4c(F)cccc4F)cc3F)ccnc2cc1OCCCN1CCCC1 (centres undefined)
6 | 560 nM | 230 nM | 8350 nM | COc1cc2c(Oc3c(F)cc(NC(=O)NN4C(=O)CSC4c4c(F)cccc4F)cc3F)ccnc2cc1OCCCN1CCCC1 (centres undefined)
7 | 1450 nM | 950 nM |  | COc1cc2c(Oc3c(F)cc(NC(=O)NN4C(=O)C(C)(C)SC4c4c(F)cccc4F)cc3F)ccnc2cc1OCCCN1CCCC1 (centres undefined)
8 | 830 nM | 670 nM |  | COc1cc2c(Oc3c(F)cc(NC(=O)NN4C(=O)C(C)SC4c4c(F)cccc4F)cc3F)ccnc2cc1OCCCN1CCCC1 (centres undefined)
9 | 970 nM | 220 nM | 3830 nM | COc1cc2c(Oc3c(F)cc(NC(=O)NN4C(=O)CSC4c4c(F)cccc4F)cc3F)ccnc2cc1OCCCN1CCC(C)CC1 (centres undefined)

Continued, compound first:

Row | Compound | IC50 [1] | IC50 [2] | IC50 [3]
10 | COc1cc2c(Oc3c(F)cc(NC(=O)NN4C(=O)CSC4c4c(F)cccc4F)cc3F)ccnc2cc1OCCCN1C[C@H]2CCCC[C@H]2C1 (some centres undefined) | 1930 nM | 470 nM | 
11 | COc1cc2c(Oc3c(F)cc(NC(=O)NN4C(=O)CCSC4c4c(F)cccc4F)cc3F)ccnc2cc1OCCCN1CCc2sccc2C1 (centres undefined) | > 20000 nM | 1320 nM | 
12 | COc1cc2c(Oc3c(F)cc(NC(=O)NN4C(=O)CSC4c4c(F)cccc4F)cc3F)ccnc2cc1OCCCN1CCc2sccc2C1 (centres undefined) | > 20000 nM | 1410 nM | 
13 | COc1cc2c(Oc3c(F)cc(NC(=O)NN4C(=O)CCSC4c4c(F)cccc4F)cc3F)ccnc2cc1OCCCN1C[C@H]2CCCC[C@H]2C1 (some centres undefined) | 3610 nM | 790 nM | 
14 | COc1cc2c(Oc3ccc(NC(=O)NN4C(=O)CSC4c4c(F)cccc4F)cc3Cl)ccnc2cc1OCCCN1CCCC1 (centres undefined) | 880 nM | 480 nM | 
15 | CCN1CCN(CCCCOc2cc3nccc(Oc4c(F)cc(NC(=O)NN5C(=O)CSC5c5c(F)cccc5F)cc4F)c3cc2OC)CC1 (centres undefined) | 1390 nM | 830 nM | 
16 | COc1cc2c(Oc3c(F)cc(NC(=O)NN4C(=O)CSC4c4c(F)cccc4F)cc3F)ccnc2cc1OCCN1CCC(N2CCCCC2)CC1 (centres undefined) | 2380 nM | 490 nM | 
17 | COc1cc2c(Oc3ccc(NC(=O)NN4C(=O)CSC4c4c(F)cccc4F)c4ccccc34)ccnc2cc1OCCCN1CCCC1 (centres undefined) | 2360 nM | 1860 nM | 
18 | COc1cc2c(Oc3c(F)cc(NC(=O)NN4C(=O)CCSC4c4c(F)cccc4F)cc3F)ccnc2cc1OCCCN1CCC(C)CC1 (centres undefined) | 1630 nM | 410 nM | 4350 nM
19 | CCN1CCN(CCOc2cc3nccc(Oc4c(F)cc(NC(=O)NN5C(=O)CSC5c5c(F)cccc5F)cc4F)c3cc2OC)CC1 (centres undefined) | 1520 nM | 350 nM | 5910 nM
20 | COc1cc2c(Oc3ccc(NC(=O)NN4C(=O)CSC4c4c(F)cccc4F)c(Cl)c3)ccnc2cc1OCCCN1CCCC1 (centres undefined) | 960 nM | 630 nM | 
